Read-outs that look alike come from different tables or passages of the source.
Target: T1, SIRT1 (Homo sapiens, UniProt Q96EB6)
T1 sequence (Q96EB6 1-747): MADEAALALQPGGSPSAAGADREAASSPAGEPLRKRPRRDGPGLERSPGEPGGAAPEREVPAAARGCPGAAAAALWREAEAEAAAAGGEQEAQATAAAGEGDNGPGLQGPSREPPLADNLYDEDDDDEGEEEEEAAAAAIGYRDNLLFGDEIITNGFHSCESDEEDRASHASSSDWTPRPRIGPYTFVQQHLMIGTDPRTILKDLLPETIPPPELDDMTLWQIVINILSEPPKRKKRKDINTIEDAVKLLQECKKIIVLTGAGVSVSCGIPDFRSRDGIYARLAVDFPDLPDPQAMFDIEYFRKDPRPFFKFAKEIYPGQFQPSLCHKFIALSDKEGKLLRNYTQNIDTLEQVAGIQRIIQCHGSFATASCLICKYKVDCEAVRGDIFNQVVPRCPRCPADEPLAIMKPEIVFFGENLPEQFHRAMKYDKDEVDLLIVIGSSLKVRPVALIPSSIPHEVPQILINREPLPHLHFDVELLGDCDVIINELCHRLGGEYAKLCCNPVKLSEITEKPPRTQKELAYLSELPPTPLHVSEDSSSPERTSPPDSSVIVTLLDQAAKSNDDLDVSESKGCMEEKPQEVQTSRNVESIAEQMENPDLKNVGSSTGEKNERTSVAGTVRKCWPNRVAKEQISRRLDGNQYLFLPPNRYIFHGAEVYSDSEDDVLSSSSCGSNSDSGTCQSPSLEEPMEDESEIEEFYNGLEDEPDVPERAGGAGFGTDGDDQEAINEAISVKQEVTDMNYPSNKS
Test: SIRT1 mass spectrometry (MS) based deacetylation assay; for FOLD ACT. MS: test concentration or dose not given here
Type: biochemical
Conditions: for EC50: mass spectrometry assay, read-out: ED50 MS ASSAY

[1] = Sirt1 activators, fold activation as determined by MS
[2] = SIRT1 fold activation as determined by MS

| FOLD ACT. MS [1] | EC50 (Sirt1 activators) [µM] | EC50 (SIRT1 activation) [µM] | FOLD ACT. MS [2] | Structure (SMILES) |
| --- | --- | --- | --- | --- |
| B (B (Fold Activation <250%)) | 5 to 50 |  |  | Cc1cc(C(=O)Nc2ccccc2-c2cn3c(CN4CCNCC4)csc3n2)n(C)n1 [Compound 678] |
| B (B (Fold Activation <250%)) | 5 to 50 |  |  | COc1ccc(C(=O)Nc2ccccc2-c2cn3c(CN4CCNCC4)csc3n2)cc1F [Compound 679] |
| A (A (Fold activation >250%)) | < 5 |  |  | O=C(Nc1ccccc1-c1cn2c(CCN3CCNCC3)csc2n1)c1cnc2ccccc2n1 [Compound 680] |
|  | 5 to 50 |  |  | COc1cc(C(=O)Nc2ccccc2-c2nc3cc(CN4CCOCC4)cnc3s2)cc(OC)c1OC [Compound 681] |
|  |  | 5 to 50 | B (B (Fold Activation <250%)) | O=C(Nc1ccccc1-c1nc2cc(CN3CCOCC3)cnc2s1)c1ccc2c(c1)OCO2 [Compound 683] |
|  |  | 5 to 50 | B (B (Fold Activation <250%)) | Cc1ccc(C(=O)Nc2ccccc2-c2nc3cc(CN4CCOCC4)cnc3s2)cc1C [Compound 684] |
|  |  | < 5 | B (B (Fold Activation <250%)) | N#Cc1cccc(C(=O)Nc2ccccc2-c2nc3cc(CN4CCOCC4)cnc3s2)c1 [Compound 685] |
|  |  | < 5 | A (A (Fold activation >250%)) | CN(C)c1cccc(C(=O)Nc2ccccc2-c2nc3cc(CN4CCOCC4)cnc3s2)c1 [Compound 686] |
|  |  | 5 to 50 | A (A (Fold activation >250%)) | COc1cc(C(=O)Nc2ccccc2-c2nc3cc(CN(C)C)cnc3s2)cc(OC)c1OC [Compound 689] |
|  |  | < 5 | A (A (Fold activation >250%)) | O=C(Nc1ccccc1-c1nc2ccc(CN3CCNCC3)nc2s1)c1cnc2ccccc2n1 [Compound 690] |
|  |  | 101 to 150 | B (B (Fold Activation <250%)) | O=C(Nc1ccccc1-c1cn2c(CN3CCNCC3)csc2n1)c1cccc2cccnc12 [Compound 692] |
|  |  | < 5 | A (A (Fold activation >250%)) | O=C(Nc1ccccc1-c1cn2c(CN3CCNCC3)csc2n1)c1cc(F)cc(F)c1 [Compound 695] |
|  |  | < 5 | A (A (Fold activation >250%)) | O=C(Nc1ccccc1-c1cn2c(CN3CCNCC3)csc2n1)c1cccc(OC(F)(F)F)c1 [Compound 698] |
|  |  | 5 to 50 | A (A (Fold activation >250%)) | O=C(Nc1ccccc1-c1cn2c(COCC(O)CO)csc2n1)c1cnc2ccccc2n1 (centres unmarked) [Compound 699] |
|  |  | 5 to 50 | A (A (Fold activation >250%)) | COc1cc(C(=O)Nc2ccccc2-c2nc3cc(CN4CCN(C)CC4)cnc3s2)cc(OC)c1OC [Compound 702] |
|  |  | < 5 | A (A (Fold activation >250%)) | Cc1csc2nc(-c3ccccc3NC(=O)c3cnc4ccccc4n3)cn12 [Compound 707] |
|  |  | < 5 | A (A (Fold activation >250%)) | O=C(Nc1ccccc1-c1cn2c(CN3CCNCC3)csc2n1)c1ccc(-c2ccccc2)cc1 [Compound 708] |
|  |  | < 5 | A (A (Fold activation >250%)) | O=C(Nc1ccccc1-c1cn2c(CN3CCNCC3)csc2n1)c1cccc(-c2ccccc2)c1 [Compound 710] |
|  |  | 5 to 50 | B (B (Fold Activation <250%)) | CC(C)(C)OC(=O)CNCc1csc2nc(-c3ccccc3NC(=O)c3cnc4ccccc4n3)cn12 [Compound 711] |
|  |  | 5 to 50 | B (B (Fold Activation <250%)) | O=C(Nc1ccccc1-c1cn2c(CN3CCC(F)CC3)csc2n1)c1cnc2ccccc2n1 [Compound 714] |
|  |  | < 5 | B (B (Fold Activation <250%)) | O=C(Nc1ccccc1-c1cn2c(CN3CCSC3)csc2n1)c1cnc2ccccc2n1 [Compound 715] |
|  |  | < 5 | A (A (Fold activation >250%)) | NC1CCN(Cc2csc3nc(-c4ccccc4NC(=O)c4cnc5ccccc5n4)cn23)CC1 [Compound 716] |
|  |  | 5 to 50 | B (B (Fold Activation <250%)) | O=C(Nc1ccccc1-c1cn2c(CN3CC(F)(F)C3)csc2n1)c1cnc2ccccc2n1 [Compound 717] |
|  |  | 5 to 50 | A (A (Fold activation >250%)) | O=C(Nc1ccccc1-c1cn2c(C(=O)O)csc2n1)c1cnc2ccccc2n1 [Compound 719] |

| FOLD ACT. MS [1] | EC50 (Sirt1 activators) [µM] | EC50 (SIRT1 activation) [µM] | FOLD ACT. MS [2] | Structure (SMILES) |
| --- | --- | --- | --- | --- |
|  |  | 5 to 50 | A (A (Fold activation >250%)) | O=C(O)Cc1csc2nc(-c3ccccc3NC(=O)c3cnc4ccccc4n3)cn12 [Compound 721] |
|  |  | < 5 | A (A (Fold activation >250%)) | COc1cc(OC)cc(C(=O)Nc2ccccc2-c2nc3cc(CN(C)C)cnc3s2)c1 [Compound 722] |
|  |  | 5 to 50 | A (A (Fold activation >250%)) | COc1cc(OC)cc(C(=O)Nc2ccccc2-c2nc3c(CN4CCNCC4)ccnc3s2)c1 [Compound 723] |
|  |  | < 5 | A (A (Fold activation >250%)) | O=C(Nc1ccccc1-c1nc2cc(CN3CCOCC3)cnc2s1)c1ccc2ccccc2n1 [Compound 724] |
|  |  | < 5 | A (A (Fold activation >250%)) | COc1cc(OC)cc(C(=O)Nc2ccccc2-c2nc3cc(CN4CCN(C)CC4)cnc3s2)c1 [Compound 725] |
|  |  | < 5 | A (A (Fold activation >250%)) | COc1cc(OC)cc(C(=O)Nc2ccccc2-c2nc3ccc(CN4CCNCC4)nc3s2)c1 [Compound 726] |
|  |  | < 5 | A (A (Fold activation >250%)) | Cc1ccc(C(=O)Nc2ccccc2-c2nc3ccc(CN4CCNCC4)nc3s2)cc1C [Compound 727] |
|  |  | 5 to 50 | A (A (Fold activation >250%)) | O=C(Nc1ccccc1-c1nc2ccc(CN3CCNCC3)nc2s1)c1ccc(F)c(F)c1 [Compound 728] |
|  |  | < 5 | A (A (Fold activation >250%)) | O=C(Nc1ccccc1-c1nc2ccc(CN3CCNCC3)nc2s1)c1ccc2ccccc2n1 [Compound 729] |
|  |  | 5 to 50 | A (A (Fold activation >250%)) | O=C(Nc1ccccc1-c1nc2cc(CN3CCNCC3)cnc2s1)c1ccc2ncsc2c1 [Compound 730] |
|  |  | 5 to 50 | A (A (Fold activation >250%)) | O=C(Nc1ccccc1-c1nc2cc(CN3CCNCC3)cnc2s1)c1cccc(C(F)(F)F)c1 [Compound 731] |
|  |  | < 5 | B (B (Fold Activation <250%)) | O=C(Nc1ccccc1-c1nc2cc(CN3CCNCC3)cnc2s1)c1cc(-c2ccccc2)no1 [Compound 732] |
|  |  | < 5 | A (A (Fold activation >250%)) | O=C(Nc1ccccc1-c1cn2c(CN3CCNCC3)csc2n1)c1cccc(-c2cc[nH]n2)c1 [Compound 733] |
|  |  | < 5 | A (A (Fold activation >250%)) | COc1ccc(-c2cc(C(=O)Nc3ccccc3-c3cn4c(CN5CCNCC5)csc4n3)[nH]n2)cc1 [Compound 735] |
|  |  | < 5 | A (A (Fold activation >250%)) | COc1ccc(-c2ccc(C(=O)Nc3ccccc3-c3cn4c(CN5CCNCC5)csc4n3)o2)cc1 [Compound 736] |
|  |  | < 5 | A (A (Fold activation >250%)) | O=C(Nc1ccccc1-c1cn2c(CN3CCNCC3)csc2n1)c1cccc(SC(F)F)c1 [Compound 737] |
|  |  | 5 to 50 | A (A (Fold activation >250%)) | COc1cccc(C(=O)Nc2ccccc2-c2cn3c(CN4CCNCC4)csc3n2)c1 [Compound 738] |
|  |  | < 5 | A (A (Fold activation >250%)) | COc1cc(C(=O)Nc2ccccc2-c2cn3c(C)csc3n2)cc(OC)c1OC [Compound 739] |
|  |  | < 5 | B (B (Fold Activation <250%)) | Cc1csc2nc(-c3ccccc3NC(=O)c3cccc(N(C)C)c3)cn12 [Compound 740] |
|  |  | < 5 | A (A (Fold activation >250%)) | CN1CCN(Cc2csc3nc(-c4ccccc4NC(=O)c4cnc5ccccc5n4)cn23)C(=O)C1 [Compound 741] |
|  |  | < 5 | B (B (Fold Activation <250%)) | O=C(Nc1ccccc1-c1cn2c(CN3CCSCC3)csc2n1)c1cnc2ccccc2n1 [Compound 742] |
|  |  | 5 to 50 | A (A (Fold activation >250%)) | COc1cc(F)cc(C(=O)Nc2ccccc2-c2cn3c(CN4CCNCC4)csc3n2)c1 [Compound 743] |
|  |  | 51 to 100 | A (A (Fold activation >250%)) | O=C(Nc1ccccc1-c1cn2c(CN3CCNCC3)csc2n1)c1cccnc1F [Compound 744] |
|  |  | < 5 | A (A (Fold activation >250%)) | O=C(Nc1ccccc1-c1cn2c(Cn3ccnc3)csc2n1)c1cnc2ccccc2n1 [Compound 745] |
